From patent US11673897B2, “Compounds for the treatment of kinase-dependent disorders” (Exelixis, Inc., priority 2018, dated 2023)

Key:
KDR = KDR (Homo sapiens (Human), UniProt P35968); test: KDR autophosphorylation ELISA in HUVEC cells; type: cell-based; settings: cellular, VEGF165-stimulated, phospho-KDR ELISA
Procedure, shortened: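 Phospho-KDR levels in lysates were measured by ELISA and referenced to stimulated-vehicle (100%) and unstimulated (0%) wells, IC50 from 4-parameter logistic fit. HUVEC, starved 24 h in serum-free medium, received an 8-point compound series (0.3% DMSO) for 1 h before a 5 min 100 ng/mL VEGF165 challenge.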

AXL = AXL (Homo sapiens (Human), UniProt P30530); test: AXL autophosphorylation ELISA in A-172 cells; type: cell-based; settings: cellular, Gas6-stimulated, phospho-AXL ELISA
Procedure, shortened: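 A-172 glioblastoma cells, serum-starved 24 h, took compounds for 1 h (8-point curve, 0.3% DMSO) before 15 min stimulation with 1 μg/mL recombinant human Gas6. Lysate phospho-AXL measured by ELISA against a phospho-AXL standard, normalized to DMSO (100%) and reference inhibitor (0%); IC50 from 4-parameter logistic fit.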

Met = Met (Homo sapiens (Human), UniProt P08581); test: Human Met kinase assay (33P radiometric, KinaseProfiler); type: biochemical; settings: 10 μM ATP, read-out: c-Met IC50
Method: (§1) Kinase activity and compound inhibition were investigated using the ^33P-Phosphoryl transfer radiometric kinase assay, performed using the KinaseProfiler™ service of Eurofins Pharma Discovery Services UK Limited. Dose-response experiments were performed using nine compound concentrations in a 96-well microtiter plate. For each assay, all compounds were prepared to a 50× final assay concentration (50 μM) in 100% DMSO, then diluted in a half-log series, with the final top concentration at 1 μM. This working stock of the compound was added to the assay well as the first component in the reaction, followed by the remaining components as detailed in the following assay protocols below. The positive control wells (100% kinase activity) contain all components of the reaction including 2% DMSO (control for solvent effects), except the compound of interest. Blank wells contain all components of the reaction, with the reference inhibitor, staurosporine. This reference compound was used to abolish kinase activity and generated the 0% kinase activity base-line. IC50 values were calculated by nonlinear regression analysis using the sigmoidal dose-response (variable slope) curve fit on XLFit version 5.3 (ID Business Solutions).
Human Met (residues R974-S1390 with A1209G and V1290L, 3.4 nM) was incubated with 8 mM MOPS pH 7.0, 0.2 mM EDTA, 250 μM KKKGQEEEYVFIE (SEQ ID NO. 45), 1 mM sodium orthovanadate, 5 mM […], 10 mM magnesium acetate, and 10 μM [γ-33P-ATP]. The reaction was initiated by the addition of the Mg/ATP mix. After incubation for 40 minutes at room temperature, the reaction was stopped by the addition of phosphoric acid to a concentration of 0.5%. A reaction aliquot of 10 μL was then spotted onto a P30 filtermat and washed four times for 4 minutes in 0.425% phosphoric acid and once in methanol prior to drying and scintillation counting. Incorporated 33P was measured using the Wallac Microbeta scintillation counter (Perkin Elmer).

Mer = Mer (Homo sapiens (Human), UniProt Q12866); test: Human Mer kinase assay (33P radiometric, KinaseProfiler); type: biochemical; settings: 10 μM ATP
Method: as §1
Human Mer (residues R557-E882 with H628Q and R794A, 0.7 nM) was incubated with 8 mM MOPS pH 7.0, 0.2 mM EDTA, 30 mM NaCl, 250 μM GGMEDIYFEFMGGKKK (SEQ ID NO. 44), 10 mM magnesium acetate, and 10 μM [γ-^33P-ATP]. The reaction was initiated by the addition of the Mg/ATP mix. After incubation for 40 minutes at room temperature, the reaction was stopped by the addition of phosphoric acid to a concentration of 0.5%. A reaction aliquot of 10 μL was then spotted onto a P30 filtermat and washed four times for 4 minutes in 0.425% phosphoric acid and once in methanol prior to drying and scintillation counting. Incorporated ^33P was measured using the Wallac Microbeta scintillation counter (Perkin Elmer).

AXL, sequence (P30530 26-894): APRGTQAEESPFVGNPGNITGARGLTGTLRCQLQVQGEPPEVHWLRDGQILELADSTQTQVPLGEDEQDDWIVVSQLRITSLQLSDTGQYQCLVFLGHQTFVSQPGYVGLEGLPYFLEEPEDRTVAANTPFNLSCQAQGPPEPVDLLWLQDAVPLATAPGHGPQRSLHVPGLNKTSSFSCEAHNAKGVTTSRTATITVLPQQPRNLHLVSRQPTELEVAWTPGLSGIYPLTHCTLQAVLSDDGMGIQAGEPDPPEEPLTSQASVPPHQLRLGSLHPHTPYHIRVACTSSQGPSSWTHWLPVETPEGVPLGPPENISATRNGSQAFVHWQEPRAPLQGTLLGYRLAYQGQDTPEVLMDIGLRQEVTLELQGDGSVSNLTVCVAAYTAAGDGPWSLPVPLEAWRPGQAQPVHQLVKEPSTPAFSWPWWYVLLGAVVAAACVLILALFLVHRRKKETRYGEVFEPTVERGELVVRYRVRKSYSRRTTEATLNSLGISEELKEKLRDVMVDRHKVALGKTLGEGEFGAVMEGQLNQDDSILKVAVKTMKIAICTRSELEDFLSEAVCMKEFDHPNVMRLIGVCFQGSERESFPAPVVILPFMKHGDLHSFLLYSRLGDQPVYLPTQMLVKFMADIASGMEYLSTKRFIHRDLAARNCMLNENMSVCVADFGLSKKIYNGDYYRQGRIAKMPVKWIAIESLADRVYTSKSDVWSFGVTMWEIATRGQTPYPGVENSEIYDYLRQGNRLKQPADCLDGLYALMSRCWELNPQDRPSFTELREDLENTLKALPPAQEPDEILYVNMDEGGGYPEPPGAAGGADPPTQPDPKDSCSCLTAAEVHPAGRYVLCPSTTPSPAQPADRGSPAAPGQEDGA
Mer, sequence (Q12866 557-882): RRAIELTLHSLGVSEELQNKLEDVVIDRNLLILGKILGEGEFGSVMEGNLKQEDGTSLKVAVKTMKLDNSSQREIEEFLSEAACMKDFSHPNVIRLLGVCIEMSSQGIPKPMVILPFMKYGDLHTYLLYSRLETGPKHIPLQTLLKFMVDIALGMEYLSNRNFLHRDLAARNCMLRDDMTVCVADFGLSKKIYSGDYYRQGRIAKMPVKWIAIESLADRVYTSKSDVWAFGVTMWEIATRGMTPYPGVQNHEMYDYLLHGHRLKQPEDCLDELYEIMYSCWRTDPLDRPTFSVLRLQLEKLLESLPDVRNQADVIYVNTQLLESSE
KDR, sequence (P35968 20-1356): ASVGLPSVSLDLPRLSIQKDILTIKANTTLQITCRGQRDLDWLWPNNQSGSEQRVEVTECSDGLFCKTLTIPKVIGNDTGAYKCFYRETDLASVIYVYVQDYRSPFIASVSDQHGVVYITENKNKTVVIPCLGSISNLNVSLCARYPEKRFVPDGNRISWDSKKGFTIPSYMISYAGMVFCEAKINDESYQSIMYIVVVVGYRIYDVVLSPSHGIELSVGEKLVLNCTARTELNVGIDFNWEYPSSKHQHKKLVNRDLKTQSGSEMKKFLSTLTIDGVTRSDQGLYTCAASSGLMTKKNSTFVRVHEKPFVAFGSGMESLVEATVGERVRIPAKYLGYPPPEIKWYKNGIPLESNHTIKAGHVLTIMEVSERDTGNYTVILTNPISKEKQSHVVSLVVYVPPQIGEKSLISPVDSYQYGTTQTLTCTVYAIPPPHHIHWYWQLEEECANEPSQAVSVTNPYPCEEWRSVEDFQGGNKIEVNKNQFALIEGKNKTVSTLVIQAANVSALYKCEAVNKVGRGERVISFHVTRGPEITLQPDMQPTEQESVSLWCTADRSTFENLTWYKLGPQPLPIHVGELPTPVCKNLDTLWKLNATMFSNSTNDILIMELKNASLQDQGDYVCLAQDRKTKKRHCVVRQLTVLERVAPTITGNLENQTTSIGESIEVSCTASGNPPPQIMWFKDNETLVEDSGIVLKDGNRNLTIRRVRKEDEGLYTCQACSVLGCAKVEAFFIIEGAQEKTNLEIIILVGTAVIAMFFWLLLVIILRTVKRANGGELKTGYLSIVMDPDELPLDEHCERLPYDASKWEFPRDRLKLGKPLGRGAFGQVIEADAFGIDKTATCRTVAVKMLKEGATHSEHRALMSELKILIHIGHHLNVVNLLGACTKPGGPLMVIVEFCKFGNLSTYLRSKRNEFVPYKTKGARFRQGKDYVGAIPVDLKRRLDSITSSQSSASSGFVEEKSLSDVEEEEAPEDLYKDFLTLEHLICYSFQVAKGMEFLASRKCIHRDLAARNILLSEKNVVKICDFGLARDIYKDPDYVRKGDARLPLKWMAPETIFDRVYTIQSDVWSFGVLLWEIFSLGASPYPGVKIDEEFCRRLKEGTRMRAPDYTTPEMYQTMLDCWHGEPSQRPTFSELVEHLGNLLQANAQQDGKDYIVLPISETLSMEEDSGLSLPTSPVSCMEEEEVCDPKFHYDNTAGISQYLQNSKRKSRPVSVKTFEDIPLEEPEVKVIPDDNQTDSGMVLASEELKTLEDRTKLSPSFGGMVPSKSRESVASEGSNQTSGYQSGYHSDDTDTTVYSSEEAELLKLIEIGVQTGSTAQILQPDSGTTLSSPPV

| SMILES | IC50 (KDR) [nM] | IC50 (AXL) [nM] | IC50 (Met) [nM] | IC50 (Mer) [nM] |
| --- | --- | --- | --- | --- |
| COC(=O)c1cc2c(Oc3ccc(NC(=O)C4(C(=O)Nc5ccc(F)cc5)CC4)cn3)ccnc2cc1OC [Compound 10, Methyl 4-[5-[[1-[(4-fluorophenyl)carbamoyl]cyclopropanecarbonyl]-amino]pyridin-2-yl]oxy-7-methoxyquinoline-6-carboxylate] | 10 to 100 | 10 to 100 | ≤ 10 | ≤ 10 |
| COC(=O)c1cc2c(Oc3ncc(NC(=O)C4(C(=O)Nc5ccc(F)cc5)CC4)cc3Cl)ccnc2cc1OC [Compound 11, Methyl 4-[3-chloro-5-[[1-[(4-fluorophenyl)carbamoyl]cyclopropanecarbonyl]-amino]pyridin-2-yl]oxy-7-methoxyquinoline-6-carboxylate] | > 300 | 10 to 100 | ≤ 10 | ≤ 10 |
| COc1cc2nccc(Oc3ccc(NC(=O)C4(C(=O)Nc5ccc(F)cc5)CC4)cn3)c2cc1C(N)=O [Compound 16, 1-N′-[6-(6-Carbamoyl-7-methoxyquinolin-4-yl)oxypyridin-3-yl]-1-N-(4-fluorophenyl)-cyclopropane-1,1-dicarboxamide] | 10 to 100 | 10 to 100 | ≤ 10 | ≤ 10 |
| CNC(=O)c1cc2c(Oc3ccc(NC(=O)C4(C(=O)Nc5ccc(F)cc5)CC4)cn3)ccnc2cc1OC [Compound 17, 1-N-(4-Fluorophenyl)-1-N′-[6-[7-methoxy-6-(methylcarbamoyl)quinolin-4-yl]oxypyridin-3-yl]cyclopropane-1,1-dicarboxamide] | 10 to 100 | 10 to 100 | 10 to 100 | 10 to 100 |
| COc1cc2nccc(Oc3ncc(NC(=O)C4(C(=O)Nc5ccc(F)cc5)CC4)cc3Cl)c2cc1C(N)=O [Compound 18, 1-N′-[6-(6-Carbamoyl-7-methoxyquinolin-4-yl)oxy-5-chloropyridin-3-yl]-1-N-(4-fluorophenyl)cyclopropane-1,1-dicarboxamide] | > 300 | ≤ 10 | ≤ 10 | ≤ 10 |
| COc1cc2nccc(Oc3ccc(NC(=O)C4(C(=O)Nc5ccc(F)cc5)CC4)cn3)c2cc1-c1cn[nH]c1 [Compound 60, 1-N-(4-Fluorophenyl)-1-N′-[6-[7-methoxy-6-(1H-pyrazol-4-yl)quinolin-4-yl]oxypyridin-3-yl]cyclopropane-1,1-dicarboxamide] | 100 to 300 | 10 to 100 | ≤ 10 | ≤ 10 |
| COc1cc2nccc(Oc3ncc(NC(=O)C4(C(=O)Nc5ccc(F)cc5)CC4)cc3Cl)c2nc1OC [Compound 80, 1-N′-[5-Chloro-6-[(6,7-dimethoxy-1,5-naphthyridin-4-yl)oxy]pyridin-3-yl]-1-N-(4-fluorophenyl)cyclopropane-1,1-dicarboxamide] | > 300 | 100 to 300 | 10 to 100 | 10 to 100 |
| COc1cc2nccc(Oc3ccc(NC(=O)C4(C(=O)Nc5ccc(F)cc5)CC4)cn3)c2nc1OC [Compound 81, 1-N′-[6-[(6,7-Dimethoxy-1,5-naphthyridin-4-yl)oxy]pyridin-3-yl]-1-N-(4-fluorophenyl)cyclopropane-1,1-dicarboxamide] | > 300 | 100 to 300 | 10 to 100 | 10 to 100 |
| COc1cc2nccc(Oc3ncc(NC(=O)C4(C(=O)Nc5ccc(F)cc5)CC4)cc3F)c2nc1OC [Compound 82, 1-N′-[6-[(6,7-Dimethoxy-1,5-naphthyridin-4-yl)oxy]-5-fluoropyridin-3-yl]-1-N-(4-fluorophenyl)cyclopropane-1,1-dicarboxamide] | > 300 | 10 to 100 | ≤ 10 | ≤ 10 |
